Data reported in patent publication US12156886B2, “Methods of increasing blood oxygen saturation” (ThermoLife International, LLC, priority 2020, dated 2024).

Assays:
[1] = tested on: NO-induced methemoglobinemia; assay: NO-induced methemoglobinemia and lung inflammation after accidental NO exposure, H2 inhalation and magnesium ingestion (Example 12); assay type: in vivo, human
Source text: During the course of developing the described methods for producing NO for a more affordable, effective, and safe source of NO therapy, one of the inventors accidentally exposed themself both chronically and acutely to NO gas. […] Since onset of symptoms, the inventor inhaled H2 gas, produced by reacting elemental magnesium and citric acid in a glass of water.
Their condition and SpO2 worsened throughout the day, and later that night they were admitted in the emergency room at a hospital with a recorded SpO2 of 45%. The hospital verified that the inventor developed NO-induced lung inflammation by X-rays and a CAT scan. Upon the diagnosis, blood samples were taken from the inventor to measure methemoglobin levels. […] A normal methemoglobin fraction is about 1%. […] Accordingly, no methemoglobin treatment (e.g., intravenous administration of methylene blue) was administered to the inventor.

[2] = cited from earlier work
[3] = Inventor exposed to NO levels higher than 25 ppm during development, SpO2 oximeter; assay type: in vivo, human
Source text: In fact, the inventor's oxygenation levels as measured by SpO2 oximeter were always in the 97-100 range. Accordingly, also disclosed herein are methods of preventing the onset of methemoglobinemia from nitrate, nitrite, or NO exposure, wherein the method comprising administering hydrogen to the subject exposed to a source of nitrate, a source of nitrite, or NO.

[4] = cited from earlier work; remark: listed apart in the source
[5] = cited from earlier work; remark: listed apart in the source
[6] = tested on: subject with respiratory illness

[HH] [H2 gas, hydrogen]
increase in relative humidity (for every about 40 ppm increase in H2 concentration, 30 C): 1%
H2 concentration shown safe (no symptoms of water in the lungs) (sensor limit 1000 ppm): 1000 ppm
methemoglobin in blood samples ([1]; at SpO2 of 45%, after H2 inhalation and 2000 mg elemental magnesium powder): no methemoglobin was detected
minor methemoglobinemia caused by inhalation of NO gas ([1]; other experiments, SpO2 returning to normal): reversed

[O]N=O [NO2, nitrogen dioxide]
permissible exposure limit in homes and offices ([2]; OSHA, 9 mg/m^3): ≤ 5 ppm
concentration that can trigger symptoms in asthmatic people ([2]; OSHA): 2 ppm
concentration that starts to damage the lungs ([2]; OSHA): 5 ppm
levels shown to cause respiratory discomfort in vulnerable populations ([2]; asthmatics): ≥ 0.1 ppm
concentration that can kill a human ([2]; exposed for about an hour): 100 ppm

[N]=O [NO, nitric oxide]
outright toxic concentration ([2]; in vivo): ≥ 100 ppm
SpO2 one day after exposure to high ambient NO ([1]; ambient NO >80 ppm): 85%
SpO2 recorded in the emergency room later that night ([1]; ambient NO >80 ppm, after prolonged H2 inhalation): 45%
ill effects ([3]; NO levels higher than 25 ppm): no ill effects
oxygenation levels by SpO2 oximeter ([3]; exposed multiple times to NO levels higher than 25 ppm): 97-100

O=NO [Sodium nitrite]
methemoglobin level ([4]; 600 mg to an adult for cyanide toxicity, van Heijst et al.): 58%
lowest calculated lethal dose ([4]; Katabami et al.): 2.6 grams
dose in a reported case of severe methemoglobinemia ([4]; in vivo): about 70 mg

O=[N+]([O-])O [nitrate alone]
oxygen saturation ([5]; 409 mg and 479 mg doses, Rosetti et al., Barlow et al.): failed to produce any increase in oxygen saturation

O=[N+]([O-])[O-].[K+] [potassium nitrate]
other symptoms (weakness, coughing) ([6]; human, in vivo): no attenuation of their other symptoms
SpO2 for up to 4 hours after administration ([6]; person): showed no signs of increase
SpO2 15 minutes after administration ([6]; person, baseline 93%): 93%
lower blood oxygen saturation versus the placebo ([5]; hypoxic conditions, Schiffer et al.): about 3%

O=[N+]([O-])[O-].[Na+] [sodium nitrate]
oxygen consumption during exercise ([5]; Larsen et al., Bailey et al.): reduce oxygen consumption during exercise
